What was measured:
[1] = parallel artificial membrane permeability assay (PAMPA); format: in vitro ADME; conditions: read-out: P
Protocol: Parallel artificial membrane permeability assay (PAMPA). The assessment of the membrane permeability of selected compounds and reference compounds propranolol and metoprolol was performed in a commercially available 96-well Corning Gentest pre-coated PAMPA plate system (Cultek S.L.U., Spain). Prior to use, the pre-coated PAMPA plate system was warmed to rt for 30 min and 300 μL of 200 μM solution of tested compound in 2% DMSO in PBS were added to the wells in the receiver (donor) plate.
Then, 200 μL of PBS were added to the wells in the filter (acceptor) plate. The filter plate was placed on the receiver plate by slowly lowering the pre-coated PAMPA plate until it sits on the receiver plate. […] The final concentrations of compound in both donor and acceptor wells were analyzed by HPLC-MS using SIM mode, and quantification was estimated by using the peak area integration normalized with an internal standard. Permeability value of the compounds was calculated using the following formula: P (cm/s) = {-ln[1-CA(t)/Ceq]}/[A*(1/VD+1/VA)*t], where A = filter area (0.3 cm2), VD = donor well volume (0.3 mL), VA = acceptor well volume (0.2 mL), t = incubation time (s), CA(t) = compound concentration (μM) in acceptor well at time t, CD(t) = compound concentration (μM) in donor well at time t, and Ceq = […]

[2] = target: T1, human D1R (Homo sapiens, UniProt P21728); assay: potentiator-mode cAMP assay (HTRF) in SK-N-MC neuroblastoma cells endogenously expressing human D1R; format: cell-based; conditions: for potentiation of DA effect at different fixed concentrations: 3: 0.1–10 μM, 26: 1, 5 and 10 μM; for cAMP response in the absence of DA (agonist activity): no DA
T1 construct: endogenously expressed human D1R in the SK-N-MC cell line (ATCC); host or cells: SK-N-MC human neuroblastoma cells

[3] = target: T2, human D5R (Homo sapiens, UniProt P21918); assay: cAMP Hunter eXpress DRD5 assay at human D5R; format: cell-based; conditions: 10 μM compound
T2 construct: host or cells: cells supplied with the cAMP Hunter eXpress DRD5 assay kit
Protocol: Functional studies at human D5R receptors were carried out in human D5R, using a cAMP Hunter eXpress DRD5 assay kit from DiscoverX. Briefly, cells were plated and maintained for 24 h at 37 °C in a 5% CO2 atmosphere in the cell plating reagent provided in the kit. After this time, test compounds were added to the cells and incubated for 15 min at 37 °C, followed by treatment with dopamine and incubation for an additional 30 min at 37 °C. Cells were then treated with the cAMP working detection solution provided with the kit for 1 h, and then cAMP solution A was added and incubated for 3 h at rt. cAMP formation was measured by luminescence detection (integration time = 500 ms) in a Tecan M1000 Genius Pro reader. Data were normalized to dopamine maximum effect and fitted to a 4-parameter logistic equation using Prism v2.1 software (GraphPad Inc).

[4] = target: T1, human D1R; assay: potentiator-mode cAMP assay (HTRF) in SK-N-MC neuroblastoma cells endogenously expressing human D1R; format: cell-based; conditions: for EC50: potency of the compound at the DA EC70 concentration
Protocol: An in-house chemical library of 250 compounds was screened using an in vitro assay measuring accumulation of cAMP in a human neuroblastoma SK-N-MC cell line stably expressing physiological levels of the D1R but not the D5R.[41] To assess allosteric modulation of the D1R, cells were treated with a fixed concentration of the test compounds (10 μM) for 15 min and then co-incubated with increasing concentrations of the endogenous agonist DA. The cAMP concentration was quantified by homogeneous time-resolved fluorescence energy transfer (HTRF) and the effect of each compound on the DA concentration–response curve was measured.
The PAM efficacy was measured as the percentage of increase over DA EC70 and the potency as the EC50 observed in the concentration–response curve.
Functional studies at human D1 and D2 receptors were carried out in endogenously expressed human D1R in the SK-N-MC cell line (ATCC), and recombinant human D2R stably transfected in an in-house CHO cell line. Cells were thawed and seeded into a black 96-well plate (1 × 10^4 cells/well for SK-N-MC cell line, 5 × 10^3 cells/well for CHO cell line) in Opti-MEM containing 500 μM IBMX (3-isobutyl-1-methylxanthine).

T1 sequence (P21728 whole entry): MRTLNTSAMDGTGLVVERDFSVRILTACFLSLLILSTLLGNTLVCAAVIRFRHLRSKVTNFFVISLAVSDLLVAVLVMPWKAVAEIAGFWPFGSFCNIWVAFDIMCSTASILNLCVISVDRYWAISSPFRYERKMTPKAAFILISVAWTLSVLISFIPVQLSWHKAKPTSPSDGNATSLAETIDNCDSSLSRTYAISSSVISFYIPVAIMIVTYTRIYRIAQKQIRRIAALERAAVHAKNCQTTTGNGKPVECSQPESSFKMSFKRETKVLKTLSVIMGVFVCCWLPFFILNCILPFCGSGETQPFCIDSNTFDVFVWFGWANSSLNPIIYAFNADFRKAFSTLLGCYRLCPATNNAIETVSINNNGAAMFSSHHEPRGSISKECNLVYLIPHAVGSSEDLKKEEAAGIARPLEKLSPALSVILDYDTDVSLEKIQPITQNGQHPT
T2 sequence (P21918 whole entry): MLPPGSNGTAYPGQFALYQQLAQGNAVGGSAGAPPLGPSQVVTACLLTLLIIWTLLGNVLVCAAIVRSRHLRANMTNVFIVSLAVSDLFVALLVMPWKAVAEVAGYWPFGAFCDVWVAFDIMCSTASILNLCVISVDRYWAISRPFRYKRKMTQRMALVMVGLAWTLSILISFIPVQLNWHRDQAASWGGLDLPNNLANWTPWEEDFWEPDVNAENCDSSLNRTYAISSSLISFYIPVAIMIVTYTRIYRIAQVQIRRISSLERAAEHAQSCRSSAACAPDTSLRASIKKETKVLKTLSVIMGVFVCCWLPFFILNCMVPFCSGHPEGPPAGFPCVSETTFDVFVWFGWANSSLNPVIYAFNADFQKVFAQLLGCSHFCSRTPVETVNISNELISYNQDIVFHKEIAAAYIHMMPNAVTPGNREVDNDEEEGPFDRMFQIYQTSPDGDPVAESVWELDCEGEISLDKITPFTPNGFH

| Compound | Papp at 5 h, 200 μM [1] | potentiation of DA effect at different fixed concentrations [2] | cAMP response in the absence of DA (agonist activity) [2] | enhancement of DA Emax at human D5 receptor [3] | EC50 [4] | reversibility of the potentiation ([2]; 10 μM for 10 min then washing with assay buffer) | receptor desensitization ([2]; preincubation for 1 h with 10 μM compound) | Emax ([4]; SK-N-MC, concentration–response curve of the compound over DA EC70, read-out: % maximum increase (efficacy over DA EC70)) |
| --- | --- | --- | --- | --- | --- | --- | --- | --- |
| O=Cc1ccc(-c2ccccc2OCF)cc1 [Compound 3, 2′-(Fluoromethoxy)[1,1′-biphenyl]-4-carbaldehyde] | 20 ×10⁻⁶ cm/s | concentration-dependent potentiation of DA effect | No cAMP response | did not enhance DA Emax | 12.7 ± 2.4 µM |  |  |  |
| CS(=N)(=O)c1ccc(-c2ccccc2OCF)cc1 (stereo not shown) [Compound 26, 2-(Fluoromethoxy)-4′-(S-methanesulfonimidoyl)-1,1′-biphenyl] | 24 ×10⁻⁶ cm/s | potentiation of the DA Emax in a concentration-dependent manner | no cAMP response | subtype selectivity | 0.06 ± 0.01 µM | reversible effect | does not induce receptor desensitization | 45 ± 7% |

Reference: publication PMC9511493, “2-(Fluoromethoxy)-4′-(S-methanesulfonimidoyl)-1,1′-biphenyl (UCM-1306), an Orally Bioavailable Positive Allosteric Modulator of the Human Dopamine D1 Receptor for Parkinson’s Disease” (Journal of Medicinal Chemistry, 2022)
